Measured values as given in patent US12365658B2, “Benzothia(di)azepine compounds and their use as bile acid modulators” (Albireo AB, priority 2021, dated 2025).

Columns and labels:
Human IBAT = target: T1, Human IBAT (Homo sapiens, UniProt Q12908); experiment: IBAT (h/m) assay, human IBAT-overexpressing cells, 3H-taurocholic acid uptake; format: cell-based; conditions: 0.25 μM 3H-taurocholic acid and 5 μM cold taurocholic acid, 20 minutes, highest test concentration 10 μM, read-out: hIBAT IC50
T1 construct: expressed in transfected cells; kept under Puromycin selection
T1 sequence (Q12908 1-348): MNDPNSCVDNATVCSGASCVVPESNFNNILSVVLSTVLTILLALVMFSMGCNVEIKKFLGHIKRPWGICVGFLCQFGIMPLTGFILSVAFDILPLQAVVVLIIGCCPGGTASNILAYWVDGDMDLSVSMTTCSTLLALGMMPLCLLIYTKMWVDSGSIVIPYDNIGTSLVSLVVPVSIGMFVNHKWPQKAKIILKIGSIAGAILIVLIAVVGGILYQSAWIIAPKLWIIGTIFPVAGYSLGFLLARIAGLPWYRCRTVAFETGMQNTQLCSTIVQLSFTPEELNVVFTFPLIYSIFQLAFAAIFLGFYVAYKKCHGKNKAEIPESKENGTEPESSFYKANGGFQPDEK
Procedure: IBAT (h/m) Assay Protocol
10,000 cells (Human or Mouse IBAT-overexpressing cells) were seeded in 96-wells plate (Corning CLS3809) in 200 μL MEM-alpha medium (Gibco 12571-063) supplemented with 10% FBS (Gibco 10438026) containing Puromycin (Gibco A1113803) (10 μg/mL) and incubated at 37° C. in 5% CO2 for 48 hours. After incubation, media was decanted from the wells and cells were washed two times with 300 μL of basal MEM-alpha medium (FBS-free). After decanting basal MEM-alpha medium each time, plates were tapped against paper towel to ensure maximum removal of residual media. Test inhibitor dilutions (highest test concentration being 10 μM, 3-fold serial dilution, 10 points) prepared in DMSO (Sigma D2650) were added in incubation mix (maintaining 0.2% final DMSO concentration) containing 0.25 μM 3H-taurocholic acid (ARC ART-1368) and 5 μM of cold taurocholic acid (Sigma T4009). 50 μL of incubation mix containing test inhibitors was then added to the wells (in duplicate) and the plates were incubated for 20 minutes in a CO2 incubator at 37° C. After incubation, the reaction was stopped by keeping the plates on ice water mix for 2-3 minutes and then the incubation mix was aspirated completely from the wells. The wells were washed two times with 250 μL of chilled unlabelled 1 mM taurocholic acid dissolved in HEPES (Gibco 15630080)-buffered (10 mM) HBSS (Gibco 14175079) (pH 7.4). The plates were tapped against a paper towel after every wash to ensure maximum removal of blocking buffer.
100 μL of MicroScint-20 (PerkinElmer 6013621) was added to the wells and kept overnight at room temperature before reading the plates in TopCount NXT™ Microplate Scintillation and Luminescence Counter from PerkinElmer under 3H Test protocol (set at 120 seconds reading time per well).
Preparation of Test Compound Dilutions
All test compounds were provided in powder form at room temperature. 10 mM DMSO stocks of the test compounds were prepared, aliquoted and stored at −20° C. From the 10 mM DMSO stock of the compounds, a 3-fold serial dilution in DMSO was prepared to get a total of 10 dilutions of the test compounds. 0.5 μL of this dilution in DMSO was added to 250 μL of FBS-free basal media containing 3H-taurocholic acid and cold taurocholic acid to prepare the incubation mixture.

Bioavailability studies = format: in vivo, Male mice (C57BL/6 or CD1) or Wistar rats; conditions: male, plasma; single intravenous dose 1 mg/kg and single oral dose 10 mg/kg; species per compound not given
Procedure: Male mice (C57BL/6 or CD1) or Wistar rats of 8-9 weeks old were used. For each test compound, two groups of 3 animals each were used. One group was administered a single intravenous dose of 1 mg/kg (vehicle 100% DMSO) through the tail vein and the other group was administered a single oral dose of 10 mg/kg through gavage needle. The group that was administered an oral dose was fasted overnight. Blood samples were collected after 0.083, 0.25, 0.5, 1, 2, 4, 6, 8 and 24 hours following intravenous administration, and after 0.25, 0.5, 1, 2, 4, 6, 8 and 24 hours following oral administration. Blood samples were taken from saphenous vein. 0.2% EDTA was used as the anticoagulant. The samples were analyzed by a discovery grade bioanalytical method developed for the estimation of test compound in plasma, using an LC-MS/MS system.

IC50 (Human IBAT) [nM] | bioavailability (Bioavailability studies) [%] | SMILES
1030 |  | CCCCC1CN(c2ccccc2)c2cc(SC)c(OCC(C)(OC)C(=O)O)cc2S(=O)(=O)N1C (single isomer, unassigned) [24, diastereomer 1]
615 |  | CCCCC1CN(c2ccccc2)c2cc(SCC)c(OCC(C)(C)C(=O)O)cc2S(=O)(=O)N1C (centres unmarked) [Example 5, 3-((3-Butyl-7-(ethylthio)-2-methyl-1,1-dioxido-5-phenyl-2,3,4,5-tetrahydro-1,2,5-benzothiadiazepin-8-yl)oxy)-2,2-dimethylpropanoic acid]
412 |  | CCCCC1CN(c2ccccc2)c2cc(SC)c(OCC(C)(OC)C(=O)O)cc2S(=O)(=O)N1C (single isomer, unassigned) [24, diastereomer 2]
290 |  | CCCCC1CN(c2ccccc2)c2cc(SCC)c(OCC(C)(C)C(=O)O)cc2S(=O)(=O)N1C (single isomer, unassigned) [6, enantiomer 2]
166 | 40 | CCCCC1CN(c2ccccc2)c2cc(SCC)c(OCC3(C(=O)O)CC3)cc2S(=O)(=O)N1C (single isomer, unassigned) [8, enantiomer 1]
360 |  | CCCCC1CN(c2ccc(F)cc2)c2cc(SC)c(OCC(C)(C)C(=O)O)cc2S(=O)(=O)N1C (centres unmarked) [Example 13, 3-((3-butyl-5-(4-fluorophenyl)-2-methyl-7-(methylthio)-1,1-dioxido-2,3,4,5-tetrahydro-1,2,5-benzothiadiazepin-8-yl)oxy)-2,2-dimethylpropanoic acid]
257 |  | CCCCC1CN(c2ccccc2)c2cc(SC)c(OCC(C)(OC)C(=O)O)cc2S(=O)(=O)N1C (single isomer, unassigned) [Example 23, 3-((3-Butyl-2-methyl-7-(methylthio)-1,1-dioxido-5-phenyl-2,3,4,5-tetrahydro-1,2,5-benzothiadiazepin-8-yl)oxy)-2-methoxy-2-methylpropanoic acid]
274 |  | CCCCC1CN(c2ccccc2)c2cc(SC)c(OCC3(C(=O)O)CC3)cc2S(=O)(=O)N1C (centres unmarked) [Example 3, 1-(((3-Butyl-2-methyl-7-(methylthio)-1,1-dioxido-5-phenyl-2,3,4,5-tetrahydro-1,2,5-benzothiadiazepin-8-yl)oxy)methyl)cyclopropane-1-carboxylic acid]
428 |  | CCCCC1CN(c2ccccc2)c2cc(SC)c(OCC(C)(OC)C(=O)O)cc2S(=O)(=O)N1C (centres unmarked) [Example 22, 3-((3-Butyl-2-methyl-7-(methylthio)-1,1-dioxido-5-phenyl-2,3,4,5-tetrahydro-1,2,5-benzothiadiazepin-8-yl)oxy)-2-methoxy-2-methylpropanoic acid]
682 | 100 | CCCCC1CN(c2ccccc2)c2cc(SC)c(OCC(C)(C)C(=O)O)cc2S(=O)(=O)N1C (single isomer, unassigned) [2, enantiomer 2]
117 |  | CCCCC1CN(c2ccc(F)cc2)c2cc(SCC)c(OCC(O)C(=O)O)cc2S(=O)(=O)N1C (centres unmarked) [Example 33, 3-((3-butyl-7-(ethylthio)-5-(4-fluorophenyl)-2-methyl-1,1-dioxido-2,3,4,5-tetrahydro-1,2,5-benzothiadiazepin-8-yl)oxy)-2-hydroxypropanoic acid]
405 |  | CCCCC1CN(c2ccccc2)c2cc(SCC)c(OCC3(C(=O)O)CC3)cc2S(=O)(=O)N1C (centres unmarked) [Example 7, 1-(((3-Butyl-7-(ethylthio)-2-methyl-1,1-dioxido-5-phenyl-2,3,4,5-tetrahydro-1,2,5-benzothiadiazepin-8-yl)oxy)methyl)cyclopropane-1-carboxylic acid]
2400 |  | CCCCC1CN(c2ccccc2)c2cc(SC)c(OCC(OC)C(=O)O)cc2S(=O)(=O)N1C (single isomer, unassigned) [32, diastereomer 1]
294 | 17 | CCCCC1CN(c2ccccc2)c2cc(SC)c(OCC3(C(=O)O)CC3)cc2S(=O)(=O)N1C (single isomer, unassigned) [4, enantiomer 2]
